The term pEC50 denotes −log10 of the EC50, conventionally taken in molar units.

pEC50: −log10 of the molar value.

The first assay deals with T1, ΔF508-CFTR (Homo sapiens, UniProt P13569, DEL508-508).
T1 construct: expressed in transfected cells
T1 sequence (P13569 with tags, fused parts or gaps DEL508-508): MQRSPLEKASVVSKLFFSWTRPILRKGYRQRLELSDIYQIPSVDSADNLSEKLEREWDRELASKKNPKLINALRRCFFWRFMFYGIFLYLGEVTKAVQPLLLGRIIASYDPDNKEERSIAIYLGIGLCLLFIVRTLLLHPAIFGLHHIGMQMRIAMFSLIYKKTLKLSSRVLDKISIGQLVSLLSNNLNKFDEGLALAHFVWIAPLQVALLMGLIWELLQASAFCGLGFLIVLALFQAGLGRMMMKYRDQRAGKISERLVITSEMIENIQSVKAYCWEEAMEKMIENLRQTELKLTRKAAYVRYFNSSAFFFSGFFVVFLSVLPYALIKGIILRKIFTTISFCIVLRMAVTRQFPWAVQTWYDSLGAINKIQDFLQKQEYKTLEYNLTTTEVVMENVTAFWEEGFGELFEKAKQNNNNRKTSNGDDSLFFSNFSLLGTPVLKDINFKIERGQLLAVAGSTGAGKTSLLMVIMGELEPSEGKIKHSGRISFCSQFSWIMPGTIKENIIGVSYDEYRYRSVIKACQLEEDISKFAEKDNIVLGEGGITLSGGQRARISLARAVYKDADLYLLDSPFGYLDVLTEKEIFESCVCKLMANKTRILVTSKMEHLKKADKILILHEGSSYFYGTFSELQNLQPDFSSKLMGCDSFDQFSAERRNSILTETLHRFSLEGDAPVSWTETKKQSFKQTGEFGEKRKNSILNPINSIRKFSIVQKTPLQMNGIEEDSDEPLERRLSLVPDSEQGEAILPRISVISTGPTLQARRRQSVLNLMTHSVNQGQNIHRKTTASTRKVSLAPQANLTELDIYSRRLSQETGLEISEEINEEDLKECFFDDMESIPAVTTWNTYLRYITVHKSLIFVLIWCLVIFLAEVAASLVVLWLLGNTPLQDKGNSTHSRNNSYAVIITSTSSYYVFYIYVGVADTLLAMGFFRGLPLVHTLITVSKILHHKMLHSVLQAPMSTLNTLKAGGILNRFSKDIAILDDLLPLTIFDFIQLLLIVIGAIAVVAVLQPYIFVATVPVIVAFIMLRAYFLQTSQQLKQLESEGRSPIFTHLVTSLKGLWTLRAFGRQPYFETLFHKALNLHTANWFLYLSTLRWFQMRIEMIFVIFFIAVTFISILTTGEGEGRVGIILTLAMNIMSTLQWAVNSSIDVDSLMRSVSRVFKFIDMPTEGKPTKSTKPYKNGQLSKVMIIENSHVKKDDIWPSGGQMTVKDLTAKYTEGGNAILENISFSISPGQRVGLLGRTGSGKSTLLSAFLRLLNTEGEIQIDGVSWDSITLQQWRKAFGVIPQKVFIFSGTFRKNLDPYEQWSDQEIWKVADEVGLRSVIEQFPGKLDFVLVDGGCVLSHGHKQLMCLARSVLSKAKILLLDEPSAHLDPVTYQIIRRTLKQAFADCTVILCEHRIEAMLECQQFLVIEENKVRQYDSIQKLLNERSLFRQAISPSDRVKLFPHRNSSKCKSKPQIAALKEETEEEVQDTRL
As to the kind of experiment: Membrane potential optical assay (FRET voltage-sensor dyes, VIPR), identification of potentiator compounds. The assay is classed as cell-based. The settings on record: Table 3; assay not given. The gist of the method: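 NIH3T3 mouse fibroblasts stably expressing ΔF508-CFTR, cultured 24 h at 27 °C, were loaded with FRET voltage dyes CC2-DMPE and DiSBAC2(3). Double-addition format: first addition of Cl⁻-free (gluconate) medium with or without compound; membrane-potential change read as fluorescence on VIPR II.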
Consider `CCCc1ccc(NC(=O)c2c[nH]c3ccccc3c2=O)cc1` [Compound 226, 4-oxo-N-(4-propylphenyl)-1H-quinoline-3-carboxamide], for which the pEC50 was above 5.00.

For the compound `CCOC(=O)Nc1ccc(CC)c(NC(=O)c2c[nH]c3ccccc3c2=O)c1` [Compound 472, [4-ethyl-3-[(4-oxo-1H-quinolin-3-yl)carbonylamino]phenyl]aminoformic acid ethyl ester], the pEC50 is above 5.00.

The same assay, now with this note: Table 3; assay not given; read-out: % Activity (% Efficacy, relative efficacy).
Regarding `Cc1ccc(NC(=O)c2c[nH]c3ccccc3c2=O)c(F)c1` [Compound 289, N-(2-fluoro-4-methyl-phenyl)-4-oxo-1H-quinoline-3-carboxamide], the Emax fell in the range of 25 to 100%.

In the case of `COC(=O)NC1CCCc2ccc(NC(=O)c3c[nH]c4ccccc4c3=O)cc21` (stereo not drawn) [Compound 159, [7-[(4-Oxo-1H-quinolin-3-yl)carbonylamino]tetralin-1-yl]aminoformic acid methyl ester], the Emax is 25 to 100%.

On to `COc1ccc2c(=O)c(C(=O)Nc3cc(O)c(C(C)(C)C)cc3C(C)(C)C)c[nH]c2c1` [Compound 583, N-(5-hydroxy-2,4-ditert-butyl-phenyl)-7-methoxy-4-oxo-1H-quinoline-3-carboxamide], for which the Emax was in the range of 25 to 100%.

In the case of `COc1c(N)cc(C(C)(C)C)cc1NC(=O)c1c[nH]c2ccccc2c1=O` [Compound 55, N-(3-amino-2-methoxy-5-tert-butyl-phenyl)-4-oxo-1H-quinoline-3-carboxamide], the Emax is below 25%.

As to `CCCOC(=O)NCC(C)(C)c1ccc(NC(=O)c2c[nH]c3ccccc3c2=O)cc1` [Compound 416, [2-methyl-2-[4-[(4-oxo-1H-quinolin-3-yl)carbonylamino]phenyl]-propyl]aminoformic acid propyl ester], the Emax fell in the range of 25 to 100%.

For `CC(C)c1cccc(-c2ccccc2NC(=O)c2c[nH]c3ccccc3c2=O)c1` [Compound 290, N-[2-(3-isopropylphenyl)phenyl]-4-oxo-1H-quinoline-3-carboxamide], the Emax is 25 to 100%.

Turning to `C[C@H]1CCCN1c1ccc(NC(=O)c2c[nH]c3ccc(F)cc3c2=O)c(C(F)(F)F)c1` [Compound 714, (S)-6-fluoro-N-(4-(2-methylpyrrolidin-1-yl)-2-(trifluoromethyl)phenyl)-4-oxo-1,4-dihydroquinoline-3-carboxamide], the Emax is 25 to 100%.

For `Cc1cccc2[nH]cc(C(=O)Nc3cc(O)c(C4(C)CCCCC4)cc3F)c(=O)c12` [Compound 498, N-[2-fluoro-5-hydroxy-4-(1-methylcyclohexyl)-phenyl]-5-methyl-4-oxo-1H-quinoline-3-carboxamide], the Emax was in the range of 25 to 100%.

Consider `CC1(C)CCOc2cc(NC(=O)c3c[nH]c4ccccc4c3=O)ccc21` [Compound 204, N-(4,4-dimethylchroman-7-yl)-4-oxo-1H-quinoline-3-carboxamide], for which the Emax is 25 to 100%.

With `CC(C)(C)c1cc(C(C)(C)C)c(NC(=O)c2c[nH]c3c(Cl)cccc3c2=O)cc1O` [Compound 663, 8-chloro-N-(5-hydroxy-2,4-ditert-butyl-phenyl)-4-oxo-1H-quinoline-3-carboxamide], the Emax was 25 to 100%.

Regarding `CC(C)(C)c1cc2cc[nH]c2cc1NC(=O)c1c[nH]c2ccccc2c1=O` [Compound 381, 4-oxo-N-(5-tert-butyl-1H-indol-6-yl)-1H-quinoline-3-carboxamide], the Emax was in the range of 25 to 100%.

Take `CC1(C)CCNc2cc(NC(=O)c3c[nH]c4ccccc4c3=O)ccc21` [Compound 300, N-(4,4-Dimethyl-1,2,3,4-tetrahydroquinolin-7-yl)-4-oxo-1H-quinoline-3-carboxamide]: the Emax fell in the range of 25 to 100%.

As to `CCCc1ccc(NC(=O)c2c[nH]c3ccccc3c2=O)cc1` [Compound 226, 4-oxo-N-(4-propylphenyl)-1H-quinoline-3-carboxamide], the Emax fell in the range of 25 to 100%.

`Cc1cccc(NC(=O)c2c[nH]c3ccccc3c2=O)c1C` [Compound 61, N-(2,3-dimethylphenyl)-4-oxo-1H-quinoline-3-carboxamide]: the Emax lay in the range of 25 to 100%.

Consider `COc1ncccc1NC(=O)c1c[nH]c2ccccc2c1=O` [Compound 15, N-(2-methoxy-3-pyridyl)-4-oxo-1H-quinoline-3-carboxamide], for which the Emax lay in the range of 25 to 100%.

As for `O=C(Nc1ccc2[nH]ncc2c1)c1c[nH]c2ccccc2c1=O` [Compound 217, N-(1H-indazol-5-yl)-4-oxo-1H-quinoline-3-carboxamide], the Emax fell in the range of 25 to 100%.

Regarding `CCOCCOc1cc(NC(=O)c2c[nH]c3ccccc3c2=O)ccc1C(C)(C)C` [Compound 161, N-[3-(2-ethoxyethoxy)-4-tert-butyl-phenyl]-4-oxo-1H-quinoline-3-carboxamide], the Emax was in the range of 25 to 100%.

For `O=C(Nc1cc2[nH]ccc2cc1Cl)c1c[nH]c2ccccc2c1=O` [Compound 32, N-(5-chloro-1H-indol-6-yl)-4-oxo-1H-quinoline-3-carboxamide], the Emax lay in the range of 25 to 100%.

Turning to `O=C(Nc1ccc2ccccc2n1)c1c[nH]c2ccccc2c1=O` [Compound 19, 4-oxo-N-(2-quinolyl)-1H-quinoline-3-carboxamide], the Emax was below 25%.

Take `CCOC(=O)Nc1ccc(CC)c(NC(=O)c2c[nH]c3ccccc3c2=O)c1` [Compound 472, [4-ethyl-3-[(4-oxo-1H-quinolin-3-yl)carbonylamino]phenyl]aminoformic acid ethyl ester]: the Emax lay within 25 to 100%.

Regarding `Cc1ccc2[nH]cc(C(=O)Nc3ccc(N4[C@H](C)CC[C@H]4C)cc3C(F)(F)F)c(=O)c2c1` [Compound 569, N-(4-((2R,5R)-2,5-dimethylpyrrolidin-1-yl)-2-(trifluoromethyl)phenyl)-6-methyl-4-oxo-1,4-dihydroquinoline-3-carboxamide], the Emax lay within 25 to 100%.

Turning to `O=C(Nc1ccc(N2CCC[C@H]2C(=O)O)cc1C(F)(F)F)c1c[nH]c2ccccc2c1=O` [Compound 567, (S)-1-[4-[(4-oxo-1H-quinolin-3-yl)carbonylamino]-3-(trifluoromethyl)phenyl]pyrrolidine-2-carboxylic acid], the Emax was 25 to 100%.

For `CCc1ccc(N(C)C)cc1NC(=O)c1c[nH]c2ccccc2c1=O` [Compound 409, N-(5-dimethylamino-2-ethyl-phenyl)-4-oxo-1H-quinoline-3-carboxamide], the Emax is 25 to 100%.

Take `Cc1cccc2[nH]cc(C(=O)Nc3cc4[nH]ccc4cc3C(C)(C)C)c(=O)c12` [Compound 565, 5-methyl-4-oxo-N-(5-tert-butyl-1H-indol-6-yl)-1H-quinoline-3-carboxamide]: the Emax is 25 to 100%.

In the case of `N#Cc1cccc(-c2ccccc2NC(=O)c2c[nH]c3ccccc3c2=O)c1` [Compound 83, N-[2-(3-cyanophenyl)phenyl]-4-oxo-1H-quinoline-3-carboxamide], the Emax was 25 to 100%.

With `Cc1ccc(-c2ccccc2NC(=O)c2c[nH]c3ccccc3c2=O)cc1C` [Compound 261, N-[2-(3,4-dimethylphenyl)phenyl]-4-oxo-1H-quinoline-3-carboxamide], the Emax lay in the range of 25 to 100%.

As to `CCc1cc2cc[nH]c2cc1NC(=O)c1c[nH]c2cccc(O)c2c1=O` [Compound 591, N-(5-ethyl-1H-indol-6-yl)-5-hydroxy-4-oxo-1H-quinoline-3-carboxamide], the Emax is 25 to 100%.

In the case of `Cc1ccc2cccc(NC(=O)c3c[nH]c4ccccc4c3=O)c2n1` [Compound 364, N-(2-methyl-8-quinolyl)-4-oxo-1H-quinoline-3-carboxamide], the Emax lay in the range of 25 to 100%.

Consider `CCc1cc(C(C)(C)C)c(O)cc1NC(=O)c1c[nH]c2cccc(O)c2c1=O` [Compound 507, N-(2-ethyl-5-hydroxy-4-tert-butyl-phenyl)-5-hydroxy-4-oxo-1H-quinoline-3-carboxamide], for which the Emax was in the range of 25 to 100%.

Regarding `CC(C)(C)c1ccc(N)cc1NC(=O)c1c[nH]c2ccccc2c1=O` [Compound 260, N-(5-Amino-2-tert-butyl-phenyl)-4-oxo-1H-quinoline-3-carboxamide], the Emax lay within 25 to 100%.

With `O=C(Nc1ccc2c(C(F)(F)F)c[nH]c2c1)c1c[nH]c2ccccc2c1=O` [Compound 545, 4-oxo-N-[3-(trifluoromethyl)-1H-indol-6-yl]-1H-quinoline-3-carboxamide], the Emax is above 100%.

In the case of `C#Cc1ccc(NC(=O)c2c[nH]c3ccccc3c2=O)cc1` [Compound 332, N-(4-ethynylphenyl)-4-oxo-1H-quinoline-3-carboxamide], the Emax lay within 25 to 100%.

In the case of `O=C(Nc1cc(N2CCCCC2)cc(C(F)(F)F)c1)c1c[nH]c2ccccc2c1=O` [Compound 488, 4-oxo-N-[3-(1-piperidyl)-5-(trifluoromethyl)phenyl]-1H-quinoline-3-carboxamide], the Emax fell in the range of 25 to 100%.

In the case of `CC(C)(C)c1cc(C(C)(C)C)c(NC(=O)c2c[nH]c3cccc(C(F)(F)F)c3c2=O)cc1O` [Compound 520, N-(5-hydroxy-2,4-ditert-butyl-phenyl)-4-oxo-5-(trifluoromethyl)-1H-quinoline-3-carboxamide], the Emax lay in the range of 25 to 100%.

Turning to `O=C(Nc1ccc2[nH]c(=O)oc2c1)c1c[nH]c2ccccc2c1=O` [Compound 152, 4-oxo-N-(2-oxo-3H-benzooxazol-6-yl)-1H-quinoline-3-carboxamide], the Emax is below 25%.

In the case of `CC(=O)N1CCc2ccc(NC(=O)c3c[nH]c4ccccc4c3=O)cc21` [Compound 233, N-(1-acetylindolin-6-yl)-4-oxo-1H-quinoline-3-carboxamide], the Emax was below 25%.

As for `COc1ccc(NC(=O)c2c[nH]c3ccccc3c2=O)cc1N` [Compound 378, N-(3-amino-4-methoxy-phenyl)-4-oxo-1H-quinoline-3-carboxamide], the Emax was 25 to 100%.

In the case of `O=C(Nc1ccc(C(F)(F)F)c(O)c1)c1c[nH]c2c(Cl)cccc2c1=O` [Compound 716, 8-chloro-N-[3-hydroxy-4-(trifluoromethyl)phenyl]-4-oxo-1H-quinoline-3-carboxamide], the Emax lay within 25 to 100%.

Take `O=C(Nc1cc(Cl)ccc1F)c1c[nH]c2ccccc2c1=O` [Compound 48, N-(5-chloro-2-fluoro-phenyl)-4-oxo-1H-quinoline-3-carboxamide]: the Emax was 25 to 100%.

As for `CC(C)(C)c1cc2cc[nH]c2cc1NC(=O)c1c[nH]c2cc(F)c(F)cc2c1=O` [Compound 646, 6,7-difluoro-4-oxo-N-(5-tert-butyl-1H-indol-6-yl)-1H-quinoline-3-carboxamide], the Emax is 25 to 100%.
